# In US9937139B2 (priority 2014, dated 2018):
# Columns and labels:
# B16 melanoma cells = assay: In vivo tumor growth suppression, B16 efficacy model; conditions: C57BL/6 mice, s.c. B16 melanoma, IP daily for 12 days; test compound 5 mg/kg and 10 mg/kg (dose of tabulated value not stated), melphalan 2.5 mg/kg
# [1] = tested on: LLCPK cells conditionally expressing hLAT1; assay: LAT1-specific in vitro cytotoxicity, modified clonigenic assay; format: cell-based; conditions: 3 μM test compound for 30 min, then 7-10 days proliferation; induced (LAT1+) vs non-induced
Structure (SMILES),Tumor Growth (% Control) 5 days post-dosing (B16 melanoma cells),Tumor Growth (% Control) End of dosing (B16 melanoma cells),percent surviving cells in cells expressing LAT1 compared to cells not expressing LAT1 [1]
"Cc1ccc(N(CCCl)CCCl)cc1C(C)(CN)CC(=O)O (centres unmarked) [Example 5, 4-Amino-3-[5-[bis(2-chloroethyl)amino]-2-methyl-phenyl]-3-methyl-butanoic acid]",14 % Control,13 % Control,–
"Cc1c(N(CCCl)CCCl)cccc1C(C)(CN)CC(=O)O (centres unmarked) [Example 6, 4-Amino-3-[3-[bis(2-chloroethyl)amino]-2-methyl-phenyl]-3-methyl-butanoic acid]",–,–,about the same
"Cc1cc(N(CCCl)CCCl)ccc1C(C)(CN)CC(=O)O (centres unmarked) [Example 7, 4-Amino-3-[4-[bis(2-chloroethyl)amino]-2-methyl-phenyl]-3-methyl-butanoic acid]",50 % Control,38 % Control,–
"N[C@@H](Cc1ccc(N(CCCl)CCCl)cc1)C(=O)O [Melphalan, melphalan, reference compound]",56 % Control,33 % Control,about the same
